# Results as given in a melting point compilation (Tetko et al.).
row,SMILES,melting point
1,CC1(C)CC(=O)C=C(N)C1,167 to 170 °C
2,CN1CCN(c2ccc(N)nc2)CC1,119 to 121 °C
3,CCc1ccc(C(N)=NO)cc1,160 to 162 °C
4,Cc1cc(C)n2nc(N)nc2n1,369 to 371 °C
5,O=C(c1c(Cl)cccc1Cl)N1CCNCC1,149 to 151 °C
6,CCOC(=O)c1cnc2c(C)cc(Br)cc2c1Cl,101 to 103 °C
7,CCOc1ccccc1C(N)=S,115 to 117 °C
8,CC1CN(C(CN)c2c(F)cccc2F)CC(C)O1 (centres undefined),59 to 61 °C
9,Clc1nc(Cl)c2ccccc2n1,117 to 119 °C
10,CC(C)NC(=O)Nc1cccc(C(=O)O)c1,239 to 241 °C
11,CCC(C)Oc1ccc(C(=O)O)cc1 (centres undefined),118 to 120 °C
12,CCn1nc(C)c(C(=O)O)c1Cl,129 to 131 °C
13,COc1cc(I)c(C(=O)O)cc1OC,200 to 202 °C
14,COc1ncc(Cl)c(Cl)n1,43 to 45 °C
15,NCc1ccccc1N1CCCC(C(N)=O)C1 (centres undefined),97 to 99 °C
16,Cc1c(C(=O)O)sc2nc3n(c(=O)c12)CCC3,281 to 283 °C
17,Cc1cc(CC(=O)O)c(C)s1,66 to 68 °C
18,Nc1nc(-c2ccco2)cs1,109 to 111 °C
19,Nc1nc(N)nc(CO)n1,269 to 271 °C
20,O=C(O)CNc1cccc(C(F)(F)F)c1,123 to 125 °C
21,CCC1=NN(C)C(=O)C1,89 to 91 °C

row,SMILES,melting point
1,O=C(O)CCc1csc2nc(C3CC3)cn12,240 to 242 °C
2,Cc1cc(C=O)nc(N2CCCCC2)n1,49 to 51 °C
3,Cc1cc(C(=O)O)n2nc(C)cc2n1,189 to 191 °C
4,Cc1ccc2oc(S)nc2n1,139 to 141 °C
5,Cc1nccc(N)c1Cl,110 to 112 °C
6,CNS(N)(=O)=O,49 to 51 °C
7,CC(=O)c1ccc(N)nc1,107 to 109 °C
8,C#CCNc1nccs1,65 to 67 °C
9,Cc1nn(C)c2ncc(SC(=O)N(C)C)cc12,144 to 146 °C
10,CC(=O)Nc1cc(C)c(S(=O)(=O)Cl)cc1Br,109 to 111 °C
11,O=C(O)c1cccc(S(=O)(=O)F)c1,152 to 154 °C
12,CCNc1nnc(C)c2ccccc12,135 to 137 °C
13,O=C1C(Br)=CC2C1C1C=CC2(Br)C12OCCO2 (centres undefined),171 to 173 °C
14,CCCc1cc(N)n(C)n1,68 to 70 °C
15,CCOC(=O)c1cc(C2CC2)nc2onc(C(C)C)c12,48 to 50 °C
16,Cc1cccc(NC(=O)CCN)n1,105 to 106 °C
17,CC(Cn1ccnc1)NC(=O)C1(N)CCCC1 (centres undefined),239 to 241 °C
18,CNc1ncccc1C(N)=O,181 to 183 °C
19,CC(NC(=O)CCl)c1ccccc1 (centres undefined),75 to 77 °C
20,OCc1cc(Br)c2c(c1)OCO2,134 to 136 °C
21,Cc1nc(-c2cccc(O)c2)no1,126 to 128 °C

row,SMILES,melting point
1,Cc1ccccc1C(=O)C=O,63 to 65 °C
2,O=S(CCCl)c1cc(Cl)ccc1Cl (centres undefined),68 to 70 °C
3,Nc1cccc(OCC(=O)N2CCCC2)c1,101 to 103 °C
4,Cc1oc(-c2cnn(C)c2)nc1C(=O)O,249 to 251 °C
5,CSC(=S)NN=C(C)c1ccccc1,149 to 151 °C
6,O=C1CNC(=O)N1C1CC1,144 to 146 °C
7,Cc1c(C(=O)O)cnn1C(C)(C)C,132 to 134 °C
8,Cn1cnc2cc(C(=O)O)cnc21,284 to 286 °C
9,COc1cc(Br)c(S(=O)(=O)Cl)cc1Cl,89 to 91 °C
10,NS(=O)(=O)c1cc(Br)cnc1Cl,119 to 121 °C
11,Nc1cccc2oc(C(F)(F)F)nc12,49 to 51 °C
12,CC(C)(C)C(=O)Nc1cccc(C(=O)O)c1,211 to 213 °C
13,CN(C)c1ncc(N)cn1,78 to 80 °C
14,CC(NC(=O)CCl)C1CC2CCC1C2 (centres undefined),87 to 89 °C
15,O=Cc1cc(Br)c2c(c1)OCCO2,99 to 101 °C
16,COCCc1nnc(S)n1N,118 to 120 °C
17,Cc1n[nH]c(C(=O)O)c1Br,271 to 273 °C
18,COc1ccc(C=O)c(Cl)c1,60 to 62 °C
19,CC(C)(NS(C)(=O)=O)C(=O)O,71 to 73 °C
20,CC(N)c1cccc(O)c1 (centres undefined),166 to 168 °C

# The remaining lines, values ahead:
row,melting point,SMILES
1,157 to 159 °C,Oc1ccc(OCc2cccnc2)cc1
2,129 to 131 °C,CCOC(=O)c1cnn2c1nc(Cl)c1ccccc12
3,294 to 296 °C,NC(=O)Cn1ccc(=O)c2ccccc21
4,230 to 238 °C,Cc1nn(-c2ccc(Cl)cc2)c2sc(C(=O)O)cc12
5,126 to 128 °C,Cc1ccc(S(=O)(=O)NCCC(=O)O)cc1C
6,232 to 234 °C,O=C(O)c1ccc(S(=O)(=O)C(F)F)cc1
7,58 to 60 °C,COc1cccc(NC(=O)OCC(F)(F)F)c1
8,181 to 183 °C,NS(=O)(=O)c1ccc(Cl)c2ccccc12
9,116 to 118 °C,Cc1ccc(-c2n[nH]cc2Br)cc1C
10,246 to 250 °C,CNS(=O)(=O)c1ccc(C(=O)O)cc1
11,161 to 163 °C,CCOc1cc(C(=O)O)cc(-c2ccccc2)c1OC
12,74 to 76 °C,CC(C)(C)OC(=O)c1ccc(C#N)cc1
13,85 to 90 °C,COC(=O)C(=O)CC(=O)c1cc(OC)ccc1OC
14,49 to 51 °C,Nc1cnn(Cc2ccc(Cl)cc2)c1
15,94 to 96 °C,Nc1ccc(SCc2ccccc2)cn1
16,295 to 297 °C,NC(=O)COc1ccc(/C=C/C(=O)O)cc1
17,131 to 133 °C,NS(=O)(=O)Cc1ccccc1[N+](=O)[O-]
18,112 to 114 °C,O=Cc1ccc(-c2ccccc2[N+](=O)[O-])s1
19,149 to 151 °C,COc1ccc(S(=O)(=O)Cl)cc1CC(=O)O
20,184 to 186 °C,CCC(C(=O)O)n1nnc(-c2ccc(Cl)cc2)n1 (centres undefined)
21,57 to 61 °C,O=S(=O)(c1ccc(CBr)cc1)C(F)F

row,melting point,SMILES
1,192 to 194 °C,Nc1ccc(-c2nc(C3CC3)n[nH]2)cc1
2,182 to 189 °C,CCN(CC)S(=O)(=O)c1ccc(=O)n(CC(=O)O)c1
3,227 to 229 °C,Nc1cc2c(cc1Cl)NC(=O)CO2
4,171 to 173 °C,Cc1nn(-c2ccc(F)cc2)c(C)c1CC(=O)O
5,73 to 77 °C,Nc1cc2c(cc1[N+](=O)[O-])OCCCO2
6,170 to 172 °C,O=C(O)C1CCN(S(=O)(=O)c2ccc3c(c2)CCC3)CC1
7,193 to 195 °C,O=C(O)c1cccc(N2CC=CC2)c1
8,151 to 153 °C,Cc1cc(C(=O)O)c(C)n1Cc1ccccn1
9,229 to 231 °C,Nc1cccc(N2CCCNC2=O)c1
10,252 to 257 °C,Cc1ccc(S(=O)(=O)NC2CC2)cc1C(=O)O
11,230 to 232 °C,CC1Sc2ccc(C(=O)O)cc2NC1=O (centres undefined)
12,175 to 177 °C,COc1ccc(-n2ccnc2S)cc1
13,220 to 222 °C,O=C(O)c1ccc(N2CCOCC2)c(F)c1
14,182 to 184 °C,CCN(CC)S(=O)(=O)c1cc(C(=O)O)ccc1OC
15,208 to 210 °C,O=C1CCSc2ccccc2N1
16,120 to 122 °C,COc1ccc(C(C)=O)cc1NC(C)=O
17,132 to 134 °C,CC(C)(C)c1noc(-c2cc(Cl)ccc2N)n1
18,108 to 110 °C,O=C1COc2c(Cl)cccc21
19,154 to 156 °C,Nc1ccc(O)cc1C(=O)NCc1ccccc1
20,159 to 161 °C,CC(=Cc1ccc(Cl)cc1)C(=O)O
21,129 to 131 °C,O=S(=O)(Cl)c1csc2ccc(F)cc12

row,melting point,SMILES
1,120 to 122 °C,Cc1ccccc1OCC(=O)NN
2,64 to 66 °C,FC(F)Oc1cccc2cccnc12
3,52 to 54 °C,CC(N)c1ccc(OCc2ccc(F)cc2)cc1 (centres undefined)
4,67 to 69 °C,CC(=O)Nc1ccccc1C=O
5,125 to 127 °C,NC(=S)Nc1ccccc1Oc1ccccc1
6,82 to 84 °C,CCC(=O)Nc1ccc(N)cc1
7,80 to 82 °C,CC(=O)CCCOc1ccccc1C(N)=O
8,162 to 164 °C,CN1C(=O)CC(C(=O)O)c2ccccc21 (centres undefined)
9,117 to 119 °C,Cc1sc2ccccc2c1S(=O)(=O)Cl
10,235 to 237 °C,O=C(O)c1cn(-c2ccccc2)nc1-c1ccncc1
11,197 to 199 °C,Cc1nc(COc2ccc(C(=O)O)cc2)no1
12,104 to 106 °C,CC(=O)c1ccc2cccc3c2c1CC3
13,191 to 193 °C,O=C(O)c1cccnc1Oc1ccc(Cl)cc1Cl
14,226 to 228 °C,NC(=O)CNS(=O)(=O)c1ccc(Br)c(C(=O)O)c1
15,207 to 209 °C,O=C1c2ccc([N+](=O)[O-])cc2C(=O)N1c1ccc(F)cc1
16,86 to 88 °C,COc1cc(-c2nc(CCl)cs2)ccc1O
17,179 to 181 °C,COc1ccccc1N(C)S(=O)(=O)c1ccc(Cl)c(C(=O)O)c1
18,142 to 144 °C,Oc1ccc(Oc2ccccn2)cc1
19,82 to 84 °C,COC(=O)c1ccc(Oc2cccnc2)cc1
20,144 to 146 °C,CCN1C(=O)C(=O)c2cc(Br)ccc21
21,219 to 221 °C,O=C(O)c1cc(-c2ccccc2)nc2cc(Br)ccc12

row,melting point,SMILES
1,135 to 137 °C,CSc1nn(-c2ccccc2)c(N)c1C#N
2,61 to 63 °C,CS(=O)(=O)CCC(Cc1cccc(Br)c1)C(=O)O (centres undefined)
3,136 to 138 °C,CN(c1ccccc1)S(=O)(=O)c1ccccc1C(=O)O
4,320 to 322 °C,O=C(O)c1cc(/C=C/c2ccc(Cl)cc2)nc2ccc(Br)cc12
5,47 to 49 °C,CC(N)c1ccc(-c2cncnc2)cc1 (centres undefined)
6,182 to 184 °C,Cc1oc2cc(O)ccc2c(=O)c1-c1ccccc1Cl
7,43 to 45 °C,CNCCCOc1ccc(S(C)(=O)=O)cc1
8,178 to 180 °C,O=[N+]([O-])c1ccc(Cc2nnn[nH]2)cc1
9,48 to 50 °C,CC(N)c1ccc(-n2cccn2)cc1 (centres undefined)
10,131 to 133 °C,COC(=O)c1cc2ccc(C)cc2[nH]1
11,86 to 88 °C,COc1ccccc1-c1nnc(CCl)o1
12,239 to 241 °C,Cc1nc2ccccc2c(=O)n1CC(=O)O
13,119 to 121 °C,O=C(CCl)Nc1cc(-n2nnnc2C2CC2)ccc1F
14,194 to 196 °C,Nc1ccc(-c2nc3cc(F)ccc3[nH]2)cc1
15,58 to 60 °C,Nc1ccc(S(F)(F)(F)(F)F)cc1Br
16,138 to 140 °C,Cc1cc2nc(Cl)c3ccccc3n2n1
17,151 to 153 °C,O=C1CCCS(=O)(=O)c2ccccc21
18,275 to 277 °C,CC(=O)Oc1ccc(-c2ccc(C(=O)O)cc2)cc1
19,111 to 113 °C,CC1CN=C(Nc2cccc(S(=O)(=O)N(C)C)c2)S1 (centres undefined)
